Experimental data reported in publication PMC6225485, “Computational screening of chalcones acting against topoisomerase IIα and their cytotoxicity towards cancer cell lines” (Journal of Enzyme Inhibition and Medicinal Chemistry, 2018).

Molecular target: T1, human topoisomerase IIα (rhTopoIIα ATPase domain) (Homo sapiens, UniProt P11388)
T1 construct: gene TOP2A; ATPase domain (45 kDa, recombinant, pET28b-hTopoIIα-ATPase)
Experiment: ADP-Glo ATPase assay with purified recombinant ATPase domain
Assay type: biochemical
Conditions: read-out: IC50 against rhTopoIIα ATPase domain

T1 sequence (P11388 29-428 limits assumed): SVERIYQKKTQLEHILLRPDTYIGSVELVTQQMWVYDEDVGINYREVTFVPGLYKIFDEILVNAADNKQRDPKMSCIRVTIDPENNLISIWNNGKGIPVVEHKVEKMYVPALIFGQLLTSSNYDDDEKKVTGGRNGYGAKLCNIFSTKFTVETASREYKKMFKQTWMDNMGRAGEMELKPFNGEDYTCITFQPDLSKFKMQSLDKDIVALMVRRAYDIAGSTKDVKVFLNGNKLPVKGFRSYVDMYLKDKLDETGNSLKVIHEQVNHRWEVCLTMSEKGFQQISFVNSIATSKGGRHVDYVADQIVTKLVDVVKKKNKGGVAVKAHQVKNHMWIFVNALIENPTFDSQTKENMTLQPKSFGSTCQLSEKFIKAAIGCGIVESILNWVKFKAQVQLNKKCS

IC50 [nM] | SMILES
7.5 ± 4.2 | COc1cc(O)c(C(=O)/C=C/c2cc(OC)c(OC)c(OC)c2)c(OC)c1 [3d, chalcone 3d]
326 ± 6.6 | Cc1ccc2c(c1CCC(O)C(C)(C)O)C(=O)C(=O)C(C(C)C)=C2 (centres unmarked) [Salvicine]
